Measurements from publication PMC12720774, “Detergents alter the stability and lipid binding properties of the CD1d immunoreceptor” (Protein Science : A Publication of the Protein Society, 2025).
Where “and” joins values, the source holds several entries; their conditions need not be identical. Identical values can stand only once.

What was measured:
[1] = test system: CD1c; set-up: method as in Mansour et al., 2016; details: ref Mansour et al., 2016; cited from earlier work
[2] = target: T1, CSP 319‐328/HLA‐B*08:01/hβ2M complex (Homo sapiens, UniProt P01889, A93T/A95T/D138N/E176V/E187T/K202T/Q94N/R180D/S35A/V36M/Y33D/Y91F); test: ITF with peptide/HLA complex; format: binding; details: for ITF change in Trp fluorescence (F-F0/F0): peptide/HLA with ODG, replicates
T1 construct: made in house
Description: (§1) To determine whether detergent effects were specific to hCD1d, we performed analogous ITF, MST, and nanoDSF experiments with a peptide/HLA complex. HLA‐B*08:01, presenting the Plasmodium falciparum derived peptide […] ([…]), was selected as a representative model system since the peptide antigen contains hydrophilic solvent‐exposed residues in the antigen‐binding groove (Frooman et al., [2025]). Although structurally similar to that of hCD1d, HLA‐B*08:01 shares low sequence identity (Figure S10a). […] By nanoDSF, ODG caused minimal destabilization of either complex (ΔT m≈−0.2 to −0.8°C; Figure S10f). […] We posit that lipid‐specific unloading effects of detergent are due to either hydrophobic residues in the antigen binding groove (detergent‐CD1d interactions) and/or the hydrophobic nature of the lipid antigen (detergent‐lipid interactions).
(§2) For comparison with peptide/HLA molecules, we prepared recombinant CSP 319‐328/HLA‐B*08:01/hβ2M complex using in vitro refolding methods fully described previously (Frooman et al., [2025]). The peptide sequence for CSP 319–328 is […]. This peptide was chosen since it contains Lys, Gln, and Asp residues predicted to be solvent‐exposed in the HLA‐B*08:01 binding groove (Frooman et al., [2025]).
ITF experiments with peptide/HLA molecules and detergents were performed using an analogous protocol.

[3] = target: T1, CSP 319‐328/HLA‐B*08:01/hβ2M complex; test: MST with peptide/HLA complex; format: binding; details: for MST normalized fluorescence signal (Fnorm): peptide/HLA with ODG, replicates
Description: as §1, §2
MST experiments with peptide/HLA molecules and detergents were performed using an analogous protocol.

[4] = target: T1, CSP 319‐328/HLA‐B*08:01/hβ2M complex; test: nanoDSF with peptide/HLA complex; format: binding; details: for nanoDSF melting temperature of peptide/HLA: peptide/HLA with ODG, replicates
Description: as §1, §2
NanoDSF experiments with peptide/HLA molecules and detergents were performed using an analogous protocol.

[5] = concentration 0.00625 (unit not given)
[6] = concentration 0.0125 (unit not given)
[7] = concentration 0.025 (unit not given)

In the case of C[C@H](CCC(=O)NCCC[N+](C)(C)CCCS(=O)(=O)[O-])[C@H]1CC[C@H]2[C@@H]3[C@H](O)C[C@@H]4C[C@H](O)CC[C@]4(C)[C@H]3C[C@H](O)[C@]12C [CHAPS, 3‐((3‐cholamidopropyl) dimethylammonio)‐1‐propanesulfonate], the “stripping of lipid antigens from CD1c (in words)” value [1] is given as “not”.
For CCCCCCCCO[C@@H]1O[C@H](CO)[C@@H](O)[C@H](O)[C@H]1O [ODG, n‐octyl‐β‐D‐glucopyranoside], the “ITF fluorescence change with peptide/HLA (in words)” value [2] was “minimal concentration‐dependent fluorescence changes”, the “ITF change in Trp fluorescence (F-F0/F0)” value ([2]; concentration 1.53e-6 (unit not given)) was 0 and the “ITF change in Trp fluorescence (F-F0/F0)” value ([2]; concentration 3.05e-6 (unit not given)) was 0.00207 and -0.125 and -0.0308. For the same molecule, the “ITF change in Trp fluorescence (F-F0/F0)” value ([2]; concentration 6.1e-6 (unit not given)) was 0.0103 and -0.142 and -0.0188, the “ITF change in Trp fluorescence (F-F0/F0)” value ([2]; concentration 1.22e-5 (unit not given)) was 0.0112 and -0.132 and -0.0414 and the “ITF change in Trp fluorescence (F-F0/F0)” value ([2]; concentration 2.44e-5 (unit not given)) was 0.0406 and -0.126 and -0.0165. The “ITF change in Trp fluorescence (F-F0/F0)” value ([2]; concentration 4.88e-5 (unit not given)) was -0.113 and -0.0115 and 0.0922, the “ITF change in Trp fluorescence (F-F0/F0)” value ([2]; concentration 9.77e-5 (unit not given)) was -0.121 and -0.135 and 0.0848 and the “ITF change in Trp fluorescence (F-F0/F0)” value ([2]; concentration 0.000195 (unit not given)) was 0.0173 and -0.126 and -0.052. The “ITF change in Trp fluorescence (F-F0/F0)” value ([2]; concentration 0.000391 (unit not given)) was 0.0313 and -0.107 and -0.0351, the “ITF change in Trp fluorescence (F-F0/F0)” value ([2]; concentration 0.000781 (unit not given)) was -0.0702 and -0.0972 and -0.0274 and the “ITF change in Trp fluorescence (F-F0/F0)” value ([2]; concentration 0.00156 (unit not given)) was -0.063 and -0.0903 and -0.0215. The “ITF change in Trp fluorescence (F-F0/F0)” value ([2]; concentration 0.00313 (unit not given)) was 0.0779 and 0.0569 and 0.00937, the “ITF change in Trp fluorescence (F-F0/F0)” value [2, 5] was 0.0158 and 0.129 and 0.219 and the “ITF change in Trp fluorescence (F-F0/F0)” value [2, 6] was 0.00491 and 0.00219 and 0.25. For the same molecule, the “ITF change in Trp fluorescence (F-F0/F0)” value [2, 7] was 0.118 and 0.242 and 0.374, the Kd ([3]; 100 nM AF647‐labeled peptide/HLA, 25°C, read-out: K D (MST), peptide/HLA) was 3.97 ± 0.29 mM and the “MST normalized fluorescence signal (Fnorm)” value ([3]; concentration 1.52588e-6 (unit not given)) was 823.198 and 827.76 and 828.811. The “MST normalized fluorescence signal (Fnorm)” value ([3]; concentration 3.05176e-6 (unit not given)) was 822.943 and 827.867 and 830.525, the “MST normalized fluorescence signal (Fnorm)” value ([3]; concentration 6.10352e-6 (unit not given)) was 822.246 and 827.784 and 829.217 and the “MST normalized fluorescence signal (Fnorm)” value ([3]; concentration 1.2207e-5 (unit not given)) was 822.018 and 826.127 and 829.204. For the same molecule, the “MST normalized fluorescence signal (Fnorm)” value ([3]; concentration 2.44141e-5 (unit not given)) was 822.327 and 826.016 and 829.378, the “MST normalized fluorescence signal (Fnorm)” value ([3]; concentration 4.88281e-5 (unit not given)) was 822.531 and 826.781 and 828.529 and the “MST normalized fluorescence signal (Fnorm)” value ([3]; concentration 9.76563e-5 (unit not given)) was 821.832 and 827.649 and 828.743. For the same molecule, the “MST normalized fluorescence signal (Fnorm)” value ([3]; concentration 0.000195313 (unit not given)) was 821.404 and 825.833 and 828.951, the “MST normalized fluorescence signal (Fnorm)” value ([3]; concentration 0.000390625 (unit not given)) was 819.989 and 827.51 and 830.305 and the “MST normalized fluorescence signal (Fnorm)” value ([3]; concentration 0.00078125 (unit not given)) was 822.464 and 828.227 and 831.061. For the same molecule, the “MST normalized fluorescence signal (Fnorm)” value ([3]; concentration 0.0015625 (unit not given)) was 823.907 and 829.452 and 833.281, the “MST normalized fluorescence signal (Fnorm)” value ([3]; concentration 0.003125 (unit not given)) was 828.308 and 833.352 and 835.76 and the “MST normalized fluorescence signal (Fnorm)” value [3, 5] was 834.384 and 840.244 and 840.854. The “MST normalized fluorescence signal (Fnorm)” value [3, 6] was 835.617 and 843.292 and 844.526, the “MST normalized fluorescence signal (Fnorm)” value [3, 7] was 837.125 and 844.883 and 846.326 and the “MST normalized fluorescence signal (Fnorm)” value ([3]; concentration 0.05 (unit not given)) was 838.274 and 844.594 and 846.629. For the same molecule, the “ΔT m (nanoDSF), peptide/HLA” value ([4]; absence vs maximum concentration of detergent, 1 μM peptide/HLA) was −0.2 to −0.8 °C, the “nanoDSF melting temperature of peptide/HLA” value ([4]; concentration 1.495 (unit not given)) was 55.47 and 55.54 and 54.62 and the “nanoDSF melting temperature of peptide/HLA” value ([4]; concentration 2.991 (unit not given)) was 55.33 and 55.34 and 55.32. For the same molecule, the “nanoDSF melting temperature of peptide/HLA” value ([4]; concentration 5.981 (unit not given)) was 55.24 and 55.48 and 55.35, the “nanoDSF melting temperature of peptide/HLA” value ([4]; concentration 11.96 (unit not given)) was 55.41 and 55.18 and 55.09 and the “nanoDSF melting temperature of peptide/HLA” value ([4]; concentration 23.93 (unit not given)) was 55.51 and 54.95 and 55.4. For the same molecule, the “nanoDSF melting temperature of peptide/HLA” value ([4]; concentration 47.85 (unit not given)) was 55.44 and 54.77 and 55.24, the “nanoDSF melting temperature of peptide/HLA” value ([4]; concentration 95.7 (unit not given)) was 55.2 and 55.36 and 55.21 and the “nanoDSF melting temperature of peptide/HLA” value ([4]; concentration 191.4 (unit not given)) was 55.5 and 55.26 and 55.22. For the same molecule, the “nanoDSF melting temperature of peptide/HLA” value ([4]; concentration 382.8 (unit not given)) was 55.54 and 55.43 and 55.19, the “nanoDSF melting temperature of peptide/HLA” value ([4]; concentration 765.6 (unit not given)) was 55.29 and 55.05 and 54.95 and the “nanoDSF melting temperature of peptide/HLA” value ([4]; concentration 1531 (unit not given)) was 55.13 and 55.03 and 54.92. For the same molecule, the “nanoDSF melting temperature of peptide/HLA” value ([4]; concentration 3063 (unit not given)) was 54.91 and 54.34 and 54.94, the “nanoDSF melting temperature of peptide/HLA” value ([4]; concentration 6125 (unit not given)) was 53.87 and 53.91 and the “nanoDSF melting temperature of peptide/HLA” value ([4]; concentration 12500 (unit not given)) was 51.99 and 52.51 and 52.34. The “nanoDSF melting temperature of peptide/HLA” value ([4]; concentration 25000 (unit not given)) was 50.57 and 50.47 and 50.7 and the “nanoDSF melting temperature of peptide/HLA” value ([4]; concentration 50000 (unit not given)) was 50.26 and 49.92 and 50.62.
